Read-outs that look alike come from different tables or passages of the source.
Legend:
[1] = system: HCT116; test: cells; assay type: cell-based; details: for IC50: read-out: Basal_Viability ATP HCT116 summarized IC50
[2] = system: DLD-1; test: cells; assay type: cell-based; details: for IC50: read-out: Basal_Viability ATP DLD-1 summarized IC50
[3] = system: RKO; test: cells; assay type: cell-based; details: for IC50: read-out: Basal_Viability ATP RKO summarized IC50
[4] = system: SNU-C1; test: cells; assay type: cell-based; details: for IC50: read-out: Basal_Viability ATP SNU-C1 summarized IC50
[5] = system: HT-29; test: cells; assay type: cell-based; details: for Basal_Viability ATP HT-29 IC50/EC50 / IC50: assay number 28; for IC50: read-out: Basal_Viability ATP HT-29 summarized IC50
[6] = system: SW480; test: cells; assay type: cell-based; details: for IC50: read-out: Basal_Viability ATP SW480 summarized IC50
[7] = system: ECFC/ADSC co-culture cell nuclei number; details: for IC50: read-out: VEGF_ADSC\ECFC Angio Hoechst NucArea summarized IC50
[8] = system: HeLa cells; test: cells; assay type: cell-based;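 on Hela CellCycMod PI 4N summarized IC50: value tracks stimulation of 4N DNA content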
[9] = system: endothelial tube formation in co-cultures of ECFCs and ADSCs treated with VEGF; test: cells; assay type: cell-based, human; details: for IC50: read-out: VEGF_ADSC\ECFC Angio CD31 TubeArea summarized IC50
[10] = system: Colo320; test: cells; assay type: cell-based; details: for IC50: read-out: Basal_Viability ATP Colo 320 summarized IC50
[11] = system: HCT116 cells treated with a GSK3β inhibitor; test: cells; assay type: cell-based; details: for IC50: read-out: GSK3b inh pretreated_Viability ATP HCT116 summarized IC50
[12] = assay number 14, 2N, read-out: Hela CellCycMod PI 2N summarized IC50
[13] = assay number 15, S phase, read-out: Hela CellCycMod PI S Phase summarized IC50
[14] = assay number 16, 4N, read-out: Hela CellCycMod PI 4N summarized IC50
[15] = assay number 17, MI, read-out: Hela CellCycMod PI MI summarized IC50
[16] = assay number 18, cell number, read-out: Hela CellCycMod PI Cell Number summarized IC50

[N-]=[N+]=CC(=O)OC[C@H](N)C(=O)O [NCGC00021876-04]
Basal_Viability ATP HCT116 IC50/EC50 ([1]; assay number 25, basal): > 20 µM | Basal_Viability ATP DLD-1 IC50/EC50 ([2]; assay number 23, basal): > 20 µM | Basal_Viability ATP RKO IC50/EC50 ([3]; assay number 29, basal): > 20 µM | Basal_Viability ATP SNU-C1 IC50/EC50 ([4]; assay number 30, basal): > 20 µM | Basal_Viability ATP HT-29 IC50/EC50 ([5]; basal): > 20 µM | Basal_Viability ATP SW480 IC50/EC50 ([6]; assay number 24, basal): > 20 µM

CN(Cc1cnc2nc(N)nc(N)c2n1)c1ccc(C(=O)N[C@@H](CCC(=O)O)C(=O)O)cc1 [NCGC00025060-15]
IC50 [7]: > 10 µM | IC50 [8, 12]: > 10 µM | IC50 [8, 13]: > 10 µM | IC50 [8, 14]: > 10 µM | IC50 [8, 15]: > 10 µM | IC50 [8, 16]: > 10 µM | IC50 ([4]; assay number 30, basal): > 20 µM | IC50 [9]: > 10 µM

Cc1nc2ccccc2n1Cc1ccc(Cl)cc1 [NCGC00160416-02]
Basal_Viability ATP HCT116 IC50/EC50 ([1]; assay number 25, basal): 1.219 µM | Basal_Viability ATP Colo 320 IC50/EC50 ([10]; assay number 27, basal): 15.1764 µM | VEGF_ADSC\ECFC Angio Hoechst NucArea IC50/EC50 [7]: > 10 µM | Hela CellCycMod PI 2N IC50/EC50 ([8]; assay number 14, 2N): > 10 µM | Hela CellCycMod PI 4N IC50/EC50 ([8]; assay number 16, 4N): > 10 µM | Hela CellCycMod PI MI IC50/EC50 ([8]; assay number 17, MI): > 10 µM | Hela CellCycMod PI Cell Number IC50/EC50 ([8]; assay number 18, cell number): 0.03183 µM | Basal_Viability ATP DLD-1 IC50/EC50 ([2]; assay number 23, basal): > 20 µM | Basal_Viability ATP SNU-C1 IC50/EC50 ([4]; assay number 30, basal): > 20 µM | Basal_Viability ATP HT-29 IC50/EC50 ([5]; basal): > 20 µM | Basal_Viability ATP SW480 IC50/EC50 ([6]; assay number 24, basal): 5.3305 µM | VEGF_ADSC\ECFC Angio CD31 TubeArea IC50/EC50 [9]: 7.3825 µM

COc1ccc(-n2nc(CCC(=O)N(C)O)cc2-c2ccc(Cl)cc2)cc1 [NCGC00253573-01]
Basal_Viability ATP HCT116 IC50/EC50 [1]: 6.5453 µM | Basal_Viability ATP Colo 320 IC50/EC50 [10]: 0.6615 µM | Basal_Viability ATP DLD-1 IC50/EC50 [2]: 2.0757 µM | Basal_Viability ATP RKO IC50/EC50 [3]: 4.1076 µM | Basal_Viability ATP SNU-C1 IC50/EC50 [4]: 1.7479 µM | Basal_Viability ATP SW480 IC50/EC50 [6]: 2.8124 µM

Cc1cc(-c2ccc(N=Nc3c(S(=O)(=O)O)cc4cc(S(=O)(=O)O)cc(N)c4c3O)c(C)c2)ccc1N=Nc1c(S(=O)(=O)O)cc2cc(S(=O)(=O)O)cc(N)c2c1O [NCGC00344528-01]
IC50/EC50, Basal_Viability ATP HCT116 (assay number 25) ([1]; basal): > 20 µM | IC50/EC50, Basal_Viability ATP Colo 320 (assay number 27) ([10]; basal): > 20 µM | IC50/EC50, VEGF_ADSC\ECFC Angio Hoechst NucArea (assay number 3) [7]: > 10 µM | IC50/EC50, Basal_Viability ATP DLD-1 (assay number 23) ([2]; basal): > 20 µM | IC50/EC50, Basal_Viability ATP RKO (assay number 29) ([3]; basal): > 20 µM | IC50/EC50, GSK3b inh pretreated_Viability ATP HCT116 (assay number 26) ([11]; GSK3b inh pretreated): > 20 µM | IC50/EC50, Basal_Viability ATP HT-29 (assay number 28) ([5]; basal): > 20 µM | IC50/EC50, Basal_Viability ATP SW480 (assay number 24) ([6]; basal): > 20 µM | IC50/EC50, VEGF_ADSC\ECFC Angio CD31 TubeArea (assay number 2) [9]: > 10 µM

O=C(OCc1ccccc1)c1cccnc1 [NCGC00166105-04]
Basal_Viability ATP HCT116 IC50/EC50 ([1]; assay number 25, basal, concentration response): > 20 µM | Basal_Viability ATP Colo 320 IC50/EC50 ([10]; assay number 27, concentration response): > 20 µM | VEGF_ADSC\ECFC Angio Hoechst NucArea IC50/EC50 [7]: > 10 µM | Basal_Viability ATP DLD-1 IC50/EC50 ([2]; assay number 23, concentration response): > 20 µM | Basal_Viability ATP RKO IC50/EC50 ([3]; assay number 29, concentration response): > 20 µM | GSK3b inh pretreated_Viability ATP HCT116 IC50/EC50 ([11]; assay number 26, GSK3b inhibitor pretreated, concentration response): > 20 µM | Basal_Viability ATP SNU-C1 IC50/EC50 ([4]; assay number 30, concentration response): > 20 µM | VEGF_ADSC\ECFC Angio CD31 TubeArea IC50/EC50 [9]: > 10 µM

C=C(CC)C(=O)c1ccc(OCC(=O)O)c(Cl)c1Cl [NCGC00016260-13]
IC50 [1]: > 20 µM | IC50 [10]: > 20 µM | IC50 [2]: 11.9 µM | IC50 [3]: > 6.67 µM | IC50 [11]: 12.2 µM | IC50 [4]: > 20 µM | IC50 [6]: > 6.67 µM

COc1ccc(C(=O)c2ccccc2O)c(O)c1 [NCGC00016393-07]
IC50 ([1]; assay number 25, basal): > 20 µM | IC50 ([10]; assay number 27, basal): > 20 µM | IC50 ([2]; assay number 23, basal): > 20 µM | IC50 ([3]; assay number 29, basal): > 20 µM | IC50 ([5]; basal): > 20 µM | IC50 ([6]; assay number 24, basal): > 20 µM

CC(C)(C)NCC(O)c1cc(O)cc(O)c1.CC(C)(C)NCC(O)c1cc(O)cc(O)c1.O=S(=O)(O)O (stereo not shown) [NCGC00016010-09]
Basal_Viability ATP HCT116 IC50/EC50 ([1]; assay number 25, basal): > 20 µM | Basal_Viability ATP Colo 320 IC50/EC50 ([10]; assay number 27): > 20 µM | Basal_Viability ATP DLD-1 IC50/EC50 ([2]; assay number 23): > 20 µM | Basal_Viability ATP RKO IC50/EC50 ([3]; assay number 29): > 20 µM | Basal_Viability ATP HT-29 IC50/EC50 [5]: > 20 µM | Basal_Viability ATP SW480 IC50/EC50 ([6]; assay number 24): > 20 µM

CCCCCCCCCCCC[N+](C)(C)Cc1ccccc1 [NCGC00164245-03]
IC50 [7]: 6.93 µM | IC50 [8, 12]: > 10 µM | IC50 [8, 13]: > 10 µM | IC50 [8, 14]: > 10 µM | IC50 [8, 15]: > 10 µM | IC50 [8, 16]: > 10 µM | IC50 ([2]; assay number 23, basal): 0.738 µM | IC50 ([11]; assay number 26, GSK3b inhibitor pretreated): > 20 µM | IC50 ([4]; assay number 30, basal): 0.02 µM | IC50 ([5]; basal): 0.465 µM | IC50 [9]: > 10 µM

Reference: publication PMC4503722, “Novel Phenotypic Outcomes Identified for a Public Collection of Approved Drugs from a Publicly Accessible Panel of Assays” (PLoS ONE, 2015)
